Read-outs that look alike come from different tables or passages of the source.
Assays:
[1] = system: metachromatic cells in nasal mucus; assay: Degranulation inhibitory effect on metachromatic cells in nasal mucus, experimental allergic rhinitis (Test 2); format: in vivo, Wistar rats; settings: intranasal 0.5 ml/100 g, 5 minutes before antigen, average of 5
Description: This test was carried out to examine the degranulation inhibitory effect of the compounds of the present invention on the metachromatic cells in nasal mucus originated from a rat suffering from experimental allergic rhinitis.
Wistar rats were passively sensitized by subcutaneously injecting anti-Cryptomeria Japonica-Ascaris serum of rat. After anesthetizing the rat with pentobarbital sodium, they were fixed while lying them on their back and the cervixes thereof were subjected to median incision. A polyethylene tube having an outer diameter of 1 mm was inserted into the internal nares of each rat through the incised portion of trachea, one end thereof was connected to a perfusion pump and sterilized physiologic saline warmed at 37° C. was perfused therethrough at a flow rate of 0.25 ml/min. 1 ml of the antigen extracted from pollen of Japanese cedar (10 micro liter per ml) was sprayed in both internal nares by means of an atomizer for internal nares and the perfusate delivered from the internal nares was recovered for 20 minutes. The number of degranulated cells per 100 metachromatic cells present in the recovered samples were scored and the value was regarded as that of the control (Nc).
The compound to be tested were dissolved in 0.15M phosphate buffer so as to obtain a solution of a desired concentration, each solution was administered through both of the interanal nares in an amount of 0.5 ml/100 g body weight, at a time 5 minutes before the spray of the antigen and the number of degranulated cells (Nt) was scored according to the same manner as described above. The rate of inhibitory effect on the degranulation (Rd) was estimated from the following relation: [formula] Each experimental results is the average of 5 measurements.

[2] = system: allergic conjunctivitis of guinea pigs; assay: Allergic conjunctivitis, histamine content in lacrimal fluid (Test 4); format: in vivo, Hartley guinea pigs
Description: (§1) This test was carried out to estimate the therapeutic effect of the compounds according to the present invention on the allergic conjunctivitis of guinea pigs.
(§2) Hartley guinea pigs were passively sensitized by intravenously injecting 1 ml of anti-DNP-As serum. After 8 days, an antigen solution (DNP-BSA: 2.5 mg/ml) was dropped on the sinistral eye once a minute over 10 minutes, then the lacrimal fluid was collected with filter paper over 10 minutes while the inflammatory reaction of the eye was visually observed during the collection of the lacrimal fluid. At 10 minutes after the completion of the dropping of the antigen solution, the compounds to be examined were dropped on the eye once a minute over 10 minutes and thereafter the collection of the lacrimal fluid and the visual observation of the inflammatory reaction of the eye were likewise effected. Then, the amount of histamine present in the collected lacrimal fluid was determined according to the Komatsu's method (Michitoshi KOMATSU, Allergy, 1978, Vol. 27, pp. 67-74).
(§3) In addition, the concentration of MTCC used was 10^-3 g/ml and that of DSCG was 2×10^-2 g/ml.

[3] = system: allergic conjunctivitis of guinea pigs; assay: Allergic conjunctivitis, visual observation of inflammatory reaction of the eye (Test 4); format: in vivo, Hartley guinea pigs; settings: MTCC 10^-3 g/ml, DSCG 2×10^-2 g/ml, dropped on the eye after antigen
Description: as §1, §2, §3

[4] = system: rats suffering from experimental allergic rhinitis; assay: Nasal mucus secretion inhibitory effect, experimental allergic rhinitis (Test 3); format: in vivo, Wistar rats; settings: brilliant blue in nasal perfusate, average of 5
Source text: This test was effected to examine the nasal mucus secretion inhibitory effect of the compounds according to the present invention on the rats suffering from experimental allergic rhinitis.
Wistar rats were passively sensitized by subcutaneously injecting anti-Cryptomeria Japonica-As serum of rat. After anesthetizing the rat with pentobarbital sodium, they were fixed while lying them on their back and the cervixes thereof were subjected to median incision. A polyethylene tube having an outer diameter of 1 mm was inserted into the internal nares of each rat through the incised portion of trachea, one end thereof was connected to a perfusion pump and sterilized physiologic saline warmed at 37° C. was perfused therethrough at a flow rate of 0.25 ml/min.
Then, 0.5 ml/100 g body weight of 4% brilliant blue was injected into the rat through the caudal vein, then the perfusate was recovered for 10 minutes and the concentration of the dye was determined which was regarded as the Ag (-) value of the control. 1 ml of the antigen extracted from pollen of Japanese cedar (1 micro liter per ml) was sprayed in both internal nares by means of an atomizer for internal nares, the antigen remaining in the internal nares was washed out with physiologic saline and the perfusate was then recovered for 30 minutes and the concentration of the dye was determined to estimate Ag (+) value of the control.
The compound to be tested were dissolved in 0.15 M phosphate buffer so as to form a solution of a desired concentration. Each of the solutions thus prepared was sprayed in both internal nares in an amound of 0.5 ml/100g body weight at the time of 5 minutes before the spray of the antigen and the concentration of the dye was determined on each sample. In this connection, the measurement of the dye concentration was effected according to the spectrophotometric method developed by M. Kojima et al. (Allergy, 1986, Vol. 35, pp. 180-187).

[5] = Japanese Journal of Pharmacology, 1982, Vol. 32, pp. 689-697; cited from earlier work
[6] = Water solubility / hydrophilicity (statement in words); format: physicochemical
[7] = Acute toxicity test, dog (Test 5); format: in vivo; settings: dog, in vivo, po; Male, p.o. (capsule); 14 days observation
Description: (§4) MTCC was administered to ddY Mice (body weight 20 to 23 g; 10 animals per test group) and Wistar rats (body weight 110 to 130 g; 10 animals per test group) through intravenous and oral routes and it was also administered to Beagle dogs (7 months old; 3 animals per test group) through oral route.
(§5) MTCC was administered to rats and mice in the form of a solution thereof in 0.1 M phosphate buffer in the case of intravenous administration and in the form of a suspension in 0.5% CMC-Na in the case of oral administration. While it was orally administered to dogs in the form of a capsule filled with the original powder.

Dog = assay: Acute toxicity test, dog (Test 5); format: in vivo; settings: Female, p.o. (capsule); 14 days observation
Description: as §4, §5

Mouse = assay: Acute toxicity test, mouse (Test 5); format: in vivo; settings: Female, 14 days observation
Description: as §4, §5

[8] = Acute toxicity test, mouse (Test 5); format: in vivo; settings: mouse, in vivo, Male, 14 days observation
Description: as §4, §5

Rat = assay: Acute toxicity test, rat (Test 5); format: in vivo; settings: Female, 14 days observation
Description: as §4, §5

[9] = Acute toxicity test, rat (Test 5); format: in vivo; settings: rat, in vivo, Male, 14 days observation
Description: as §4, §5

[10] = After Dropping of Antigen (before compound)
[11] = After Dropping of Compound, MTCC 10^-3 g/ml, DSCG 2×10^-2 g/ml

Row | Structure (SMILES) | Rate of Inhibition of Degranulation Rd (%) ([1]; Concn. 10^-4 g/ml) | Rate of Inhibition of Degranulation Rd (%) ([1]; Concn. 10^-5 g/ml) | Rate of Inhibition of Degranulation Rd (%) ([1]; Concn. 10^-6 g/ml) | Rate of Inhibition of Degranulation Rd (%) ([1]; Concn. 10^-7 g/ml) | Rate of Inhibition of Degranulation Rd (%) ([1]; Concn. 10^-8 g/ml) | Histamine Content in Lacrimal Fluid [2, 10] [ng] | Histamine Content in Lacrimal Fluid [2, 11] [ng] | Therapeutic effect on swelling and congestion of the conjunctiva (visual observation) [3] | Dye Concentration ([4]; Concn. 10^-4 g/ml) [micro gr./ml] | Dye Concentration ([4]; Concn. 10^-5 g/ml) [micro gr./ml] | Dye Concentration ([4]; Concn. 10^-6 g/ml) [micro gr./ml] | Dye Concentration ([4]; Concn. 10^-7 g/ml) [micro gr./ml] | Dye Concentration ([4]; Concn. 10^-8 g/ml) [micro gr./ml] | also measured
1 | O=C(O)c1cc(=O)c2c(OCC(O)COc3cccc4oc(C(=O)O)cc(=O)c34)cccc2o1 [DSCG, Disodium Chromoglycate, reference compound] | 90.3 | 71.5 | 39.4 | 8.1 | -1.7 | 6.7 | 6.4 | relatively low therapeutic effect | 0.65 | 0.89 | 1.01 | 1.44 | 1.77 | 
2 | CCCCOC(=O)C(=O)Nc1cccc(-c2nnn[nH]2)c1 [MTB, Butyl 3(1H--tetrazol5-yl)oxanilate] |  |  |  |  |  |  |  |  |  |  |  |  |  | Water solubility (in words) [5]: hydrophobic or less soluble in water
3 | O=C(O)C(=O)Nc1cccc(-c2nnn[nH]2)c1 [MTCC, 3-(1H-tetrazol-5-yl)oxanilic acid] | 94.3 | 75.1 | 33.0 | 15.0 | -1.4 | 6.3 | 2.4 | excellent therapeutic effect | 0.64 | 0.85 | 0.99 | 1.37 | 1.74 | Water solubility (in words) [6]: hydrophyilic or soluble in water; LD50 at 336 h [7]: > 2000 mg/kg; Acute Toxicity LD50 (Dog): > 2000 mg/kg; Acute Toxicity LD50 (Mouse; i.v.): > 225 mg/kg; Acute Toxicity LD50 (Mouse; p.o.): > 2000 mg/kg; LD50 at 336 h ([8]; iv): > 225 mg/kg; LD50 at 336 h ([8]; po): > 2000 mg/kg; Acute Toxicity LD50 (Rat; i.v.): > 180 mg/kg; Acute Toxicity LD50 (Rat; p.o.): > 2000 mg/kg; LD50 at 336 h ([9]; iv): > 180 mg/kg; LD50 at 336 h ([9]; po): > 2000 mg/kg; Histamine content in the lacrimal fluid (in words) ([2]; by the administration of MTCC, 10^-3 g/ml): substantially reduced

Reference: patent US4795754A, “3-(1H-tetrazol-5-y1)oxanilic acid and salts thereof and pharmaceutical compositions containing them” (Wakamoto Pharmaceutical Co., Ltd., priority 1986, dated 1989)
